Experimental data from US8785493B2, “Treatment of retroviral reservoirs exploiting oxidative stress” (Istituto Superiore di Sanita, priority 2008, dated 2014).
Read-outs that look alike come from different tables or passages of the source.

What was measured:
latent HIV-1 = details: cited from earlier work
[1] = system: HIV-1 LTR in Jurkat A1 cells; assay type: cell-based
[2] = system: HIV-1 replication in latently HIV-1 infected lymphocytic ACH-2 cells; assay type: cell-based; details: for Induction of HIV-1 replication by the agent alone, ACH-2 cells: data not shown
[3] = system: HIV-1 replication in latently HIV-1 infected monocytoid U1 cells; assay type: cell-based
mouse HDAC1 = mouse HDAC1 (Mus musculus, UniProt O09106); assay: Mouse HDAC1 enzyme assay; assay type: biochemical
Experimental: Mouse HDAC1 Enzyme Assay. […] HDAC activity was determined using [^3H]acetate-prelabelled chicken reticulocyte histones as the substrate. Mouse HDAC1 (50 microL) was incubated with different concentrations of compounds for 15 min on ice, and 10 μL of total [^3H]acetate-prelabelled chicken reticulocyte histones (2 mg/mL) were added, resulting in a concentration of 41 microM. The mixture was incubated at 37° C. for 1 h. The reaction was stopped by the addition of 50 microL of 1 M HCl/0.4 M acetylacetate and 1 mL ethyl acetate. After centrifugation at 10 000 g for 5 min, an aliquot of 600 microL of the upper phase was counted for radioactivity in a 3 mL liquid scintillation cocktail [Mai et al., 2006].

Maize HD1-A = Maize HD1-A (Zea mays, UniProt Q7XAX9); assay: Maize HD1-A enzyme inhibition in vitro; assay type: biochemical
Experimental: (§1) Maize HD2, HD1-B, and HD1-A Enzyme Inhibition in Vitro. Radioactively labelled chicken core histones were used as the enzyme substrate according to established procedures [referenced in: Mai et al., 2006]. The enzyme liberated tritiated acetic acid from the substrate, which was quantified by scintillation counting. The IC50 values are the results of triple determinations. A 50 μL sample of maize enzyme (at 30° C.) was incubated (30 min) with 10 microL of total [^3H]acetate-prelabelled chicken reticulocyte histones (2 mg/mL). The reaction was stopped by the addition of 36 microL of 1 M HCl/0.4 M acetate and 800 microL of ethyl acetate. After centrifugation (10 000 g, 5 min), an aliquot of 600 microL of the upper phase was counted for radioactivity in 3 mL of liquid scintillation cocktail. The compounds were tested at a starting concentration of 40 microM, and active substances were diluted further. TSA and SAHA were used as the reference compounds, and blank solvents were used as negative controls [Mai et al. 2006].

HDACs = assay: HDAC class selectivity (HDACs inhibited); assay type: biochemical; details: Class 1 selective or NS (non-selective)
IP HDAC4 = IP HDAC4 (Homo sapiens, UniProt P56524); assay type: biochemical
Experimental: (§2) Cell-Based Human HDAC1 and HDAC4 Assays. […] Then, 1000 micrograms of extracts were diluted in IP buffer up to 1 mL and pre-cleared by incubating with 20 microL of A/G plus Agarose (Santa Cruz) for 30 min to 1 h on a rocking table at 4° C. Supernatants were transferred into a new tube, and the antibodies (around 3 to 4 μg) were added and IP was allowed to proceed overnight at 4° C. on a rocking table. The antibodies used were HDAC1 (Abcam) and HDAC4 (Sigma). As the negative control, the same amount of protein extracts were immunoprecipitated with the corresponding purified IgG (Santa Cruz). On the next day, 20 microL of A/G and Agarose (Santa Cruz) were added to each IP, and incubation was continued for 2 h. The beads were recovered by brief centrifugation and washed with cold IP buffer several times. The samples were than washed twice in PBS and re-suspended in 20 microL of sterile PBS. The HDAC assay was carried out according to the supplier's instructions (Upstate). Briefly, samples immunoprecipitated with the HDAC4 and HDAC1 or with purified IgG were pooled separately to homogenise all samples. Then, 10 microL of the IP was incubated with a previously labelled ^3H-Histone H4 peptide linked with streptavidine agarose beads (Upstate). In detail, 120 000 CPM of the H4-^3H-acetyl-peptide was used for each tube and incubated in 1 HDAC buffer with 10 microL of the sample in the presence or absence of HDAC inhibitors with a final volume of 200 μL. Those samples were incubated overnight at 37° C. in slow rotation. On the next day, 50 μL of a quenching solution was added, and 100 microL of the samples were counted in duplicate after brief centrifugation in a scintillation counter.

Maize HD1-B = Maize HD1-B (Zea mays, UniProt Q9ZTP8); assay: Maize HD1-B enzyme inhibition in vitro; assay type: biochemical
Experimental: as §1

IP HDAC1 = IP HDAC1 (Homo sapiens, UniProt Q13547); assay: Human HDAC1 assay on immunoprecipitate (IP) from U937 cells; assay type: biochemical
Experimental: as §2

[4] = system: Non-infected H9 and U937, HIV-1 infected H9IIIB, ACH-2 and U1 cells; assay: Selective killing, MTT cell viability, infected versus non-infected cells; assay type: cell-based; details: seven days
Source text: Cell viability assay. Cell viability was quantitated using the highly standardised methyl tetrazolium (MTT) procedure (described in detail in: Savarino A, Calosso L, Piragino A, Martini C, Gennero L, Pescarmona G P, Pugliese A. Modulation of surface transferrin receptors in lymphoid cells de novo infected with human immunodeficiency virus type-1. Cell Biochem Funct. 1999 March; 17(1):47-55). Absorbance values were generated at a wavelength of 450 nm using 96-well ELISA readers and subtracted of the blank values using cell culture media in the absence of cells. Cell viability in the presence of the test compounds was expressed as a percentage of the cell viability of control untreated cell cultures. For testing of selective killing, Non-infected H9, and U937, and HIV-1 infected HIIIB, ACH-2, and U1 cells were incubated with the test compounds for seven days, and cell viability was measured as described above.

[5] = system: HIV-1 LTR in quiescently infected Jurkat 8.4 cells; assay: HIV-1 LTR-controlled GFP expression, flow cytometry, Jurkat clone 8.4; assay type: cell-based; details: for LTR-controlled GFP expression, Jurkat 8.4 cells: 72 h, gated live cells
[6] = system: NF-kappaB (p65/p50) in Jurkat 8.4 cells; assay: NF-kappaB nuclear translocation, colorimetric p65 assay; assay type: cell-based; parameters: dose or concentration left out as unconfirmed; details: auranofin, different incubation times, relative to TNF-alpha 1.5 h
Experimental: Detection of NF-kappaB nuclear translocation. Nuclear extracts from control Jurkat 8.4 cells and cells treated with auranofin at different times of incubation were obtained using a nuclear extraction kit (Chemicon International), following the Manufacturer's instructions. NF-kappaB nuclear translocation was detected using a colorimetric transcription factor assay (Millipore) for the p65 subunit. Results were expressed as a percentage of the signal obtained in cells incubated with the potent NF-kappaB stimulating cytokine TNF-alpha (5 ng/ml) for 1.5 h, at which the peak of nuclear translocation of NF-kappaB is reached.

our cell lines = assay: Toxicity of auranofin to the cell lines used; assay type: cell-based; details: concentrations approx. two orders of magnitude superior to those of the present study, data not shown
Source text: Cell viability assay. Cell viability was quantitated using the methyl tetrazolium (MTT) procedure. Absorbance values were generated at a wavelength of 550 nm using 96-well ELISA readers and subtracted of the blank values using cell culture media in the absence of cells. Cell viability in the presence of the test compounds was expressed as a percentage of the cell viability of control untreated cell cultures.

Sequence of IP HDAC1 (Q13547 whole entry): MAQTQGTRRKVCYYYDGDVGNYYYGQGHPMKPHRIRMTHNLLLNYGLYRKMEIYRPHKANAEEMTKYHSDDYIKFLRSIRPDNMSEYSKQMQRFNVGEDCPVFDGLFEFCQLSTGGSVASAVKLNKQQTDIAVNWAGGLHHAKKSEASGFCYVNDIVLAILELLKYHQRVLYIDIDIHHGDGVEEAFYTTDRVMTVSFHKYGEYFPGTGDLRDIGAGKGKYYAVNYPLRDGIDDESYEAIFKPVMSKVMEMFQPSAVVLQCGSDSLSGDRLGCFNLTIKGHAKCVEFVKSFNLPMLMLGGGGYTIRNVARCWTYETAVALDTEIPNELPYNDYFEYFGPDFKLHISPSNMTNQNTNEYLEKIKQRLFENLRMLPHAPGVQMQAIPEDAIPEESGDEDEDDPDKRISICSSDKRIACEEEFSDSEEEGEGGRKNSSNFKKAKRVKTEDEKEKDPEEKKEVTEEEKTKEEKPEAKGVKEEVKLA
Sequence of IP HDAC4 (P56524 whole entry): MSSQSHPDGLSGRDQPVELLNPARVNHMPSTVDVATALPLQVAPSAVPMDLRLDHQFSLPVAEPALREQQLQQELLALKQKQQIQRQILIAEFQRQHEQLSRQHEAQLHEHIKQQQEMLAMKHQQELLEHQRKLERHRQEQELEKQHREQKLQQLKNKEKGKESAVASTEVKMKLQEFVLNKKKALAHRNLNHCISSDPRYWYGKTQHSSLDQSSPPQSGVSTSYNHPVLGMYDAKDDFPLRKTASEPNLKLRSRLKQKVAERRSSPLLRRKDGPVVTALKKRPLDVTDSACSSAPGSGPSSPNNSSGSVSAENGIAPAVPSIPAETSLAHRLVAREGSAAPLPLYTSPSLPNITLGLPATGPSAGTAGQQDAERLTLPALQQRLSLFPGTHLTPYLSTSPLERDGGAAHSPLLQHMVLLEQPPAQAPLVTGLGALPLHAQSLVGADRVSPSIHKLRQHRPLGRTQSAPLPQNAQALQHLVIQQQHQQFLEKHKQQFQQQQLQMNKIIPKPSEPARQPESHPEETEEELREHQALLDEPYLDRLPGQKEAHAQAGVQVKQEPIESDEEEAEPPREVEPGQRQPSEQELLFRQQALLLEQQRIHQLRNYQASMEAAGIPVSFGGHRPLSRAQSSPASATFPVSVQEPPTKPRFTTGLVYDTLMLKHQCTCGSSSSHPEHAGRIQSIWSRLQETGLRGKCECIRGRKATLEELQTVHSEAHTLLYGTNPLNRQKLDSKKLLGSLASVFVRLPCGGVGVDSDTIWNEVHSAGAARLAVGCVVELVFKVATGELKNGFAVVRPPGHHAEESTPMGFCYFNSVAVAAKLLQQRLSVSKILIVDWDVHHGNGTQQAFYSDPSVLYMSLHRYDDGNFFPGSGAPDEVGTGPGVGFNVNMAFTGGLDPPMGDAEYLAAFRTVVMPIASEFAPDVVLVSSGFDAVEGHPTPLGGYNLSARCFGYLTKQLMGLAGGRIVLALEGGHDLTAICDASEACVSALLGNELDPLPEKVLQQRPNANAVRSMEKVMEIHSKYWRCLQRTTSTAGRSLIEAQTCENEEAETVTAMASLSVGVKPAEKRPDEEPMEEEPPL
Sequence of mouse HDAC1 (O09106 whole entry): as the sequence (Q13547 whole entry) above, with R8K, D399E, E424D counted along it
Sequence of Maize HD1-A (Q7XAX9 entry or part of it): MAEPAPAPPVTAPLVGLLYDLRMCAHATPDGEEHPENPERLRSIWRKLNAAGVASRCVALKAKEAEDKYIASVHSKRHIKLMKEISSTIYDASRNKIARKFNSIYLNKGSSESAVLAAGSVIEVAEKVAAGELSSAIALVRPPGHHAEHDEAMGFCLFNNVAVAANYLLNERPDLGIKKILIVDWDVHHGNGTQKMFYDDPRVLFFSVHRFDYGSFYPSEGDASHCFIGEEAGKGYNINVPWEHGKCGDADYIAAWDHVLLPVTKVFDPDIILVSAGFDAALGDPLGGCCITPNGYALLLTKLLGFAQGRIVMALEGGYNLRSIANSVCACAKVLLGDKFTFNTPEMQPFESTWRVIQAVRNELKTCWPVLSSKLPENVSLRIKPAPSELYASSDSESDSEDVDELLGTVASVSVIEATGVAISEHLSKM
Sequence of Maize HD1-B (Q9ZTP8 entry or part of it): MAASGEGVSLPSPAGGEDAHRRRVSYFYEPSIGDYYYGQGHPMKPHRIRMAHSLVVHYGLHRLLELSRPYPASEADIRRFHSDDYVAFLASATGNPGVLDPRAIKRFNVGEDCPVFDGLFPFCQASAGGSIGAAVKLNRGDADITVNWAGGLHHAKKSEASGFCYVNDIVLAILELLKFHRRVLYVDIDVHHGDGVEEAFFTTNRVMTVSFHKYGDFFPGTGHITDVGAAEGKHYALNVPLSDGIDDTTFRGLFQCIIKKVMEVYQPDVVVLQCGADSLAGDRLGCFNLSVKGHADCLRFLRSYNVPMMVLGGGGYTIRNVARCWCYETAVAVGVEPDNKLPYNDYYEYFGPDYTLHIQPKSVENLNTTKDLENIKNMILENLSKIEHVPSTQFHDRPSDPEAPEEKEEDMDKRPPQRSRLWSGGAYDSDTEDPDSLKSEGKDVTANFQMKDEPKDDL

Molecule	IC50 (mouse HDAC1) [nM]	IC50 (Maize HD1-A) [nM]	HDACs inhibited (HDACs)	inhibition at 5 µM (IP HDAC4) [%]	IC50 (Maize HD1-B) [nM]	inhibition at 5 µM (IP HDAC1) [%]	further results
CCCC(CCC)C(=O)O [VA, valproic acid]	–	–	–	–	–	–	EC50, HIV-1 escape from latency (latent HIV-1): millimolar range
CCCCS(=N)(=O)CCC(N)C(=O)O (stereo not shown) [BSO, buthionine sulfoximine]	–	–	–	–	–	–	GFP expression in combination with HDACi (MS-275), Jurkat A1 cells ([1]; 72 h): recruited HDACi-insensitive cells into the responding cell population; LTR-controlled GFP expression, Jurkat A1 cells ([1]; 72 h): induced LTR activation in a small proportion of cells; Induction of HIV-1 replication by the agent alone, ACH-2 cells ([2]; concentrations up to 500 μM): had no effect; Induction of HIV-1 replication by the agent alone, ACH-2 cells [2]: did not significantly induce HIV-1 replication; Induction of HIV-1 replication by the agent alone, U1 cells ([3]; data not shown): did not significantly induce HIV-1 replication
CCC(C(=O)Nc1ccc(/C=C/C(=O)NO)cc1)c1ccc2ccccc2c1 (stereo not shown) [MC 2113]	560	69	Class 1	22.4	62	64.9	–
Nc1ccccc1NC(=O)c1ccc(CNC(=O)OCc2cccnc2)cc1 [MS 275]	–	–	Class 1	–	–	65.4	Concentration range of activity in inducing HIV-1 escape from latency, ACH-2 cells ([2]; day 3, concentration-response 0.001-1 μM): nanomolar range; Combined HIV-1 promoting effect of HDACi with BSO, ACH-2 cells ([2]; percentage-of-synergism graph, three days): synergistic effect; Concentration range of activity in inducing HIV-1 escape from latency, U1 cells ([3]; not shown): nanomolar range
O=C(CCCCCCC(=O)Nc1ccccc1)NO [SAHA, suberoylanilide hydroxamic acid]	–	–	–	–	–	–	LTR-controlled GFP expression, Jurkat A1 cells ([1]; 72 h): induction of LTR-controlled expression of green-fluorescent protein (GFP)
O=C(/C=C/c1ccc(NC(=O)C(c2ccccc2)c2ccccc2)cc1)NO [MC 1855]	128	55	Class 1	0	162	78.7	Selective killing of HIV-1 infected cells versus uninfected counterparts [4]: selective killing of HIV-1-infected cells
gold(1+); 3,4,5-triacetyloxy-6-(acetyloxymethyl)oxane-2-thiolate; triethylphosphanium [auranofin]	–	–	–	–	–	–	LTR-controlled GFP expression, Jurkat 8.4 cells [5]: dose-dependent shift in fluorescence; GFP expression in combination with HDACI (MC2113), Jurkat 8.4 cells ([5]; auranofin 0.25 microM plus MC2113 1 microM): recruited the HDACi-unresponsive cells into the responding cell population; NF-kappaB (p65) in nuclear extracts [6]: time-dependent NF-kappaB accumulation within the nuclei; Toxicity to cell lines (our cell lines): toxic to our cell lines; LTR-controlled GFP expression, Jurkat A1 cells ([1]; 72 h): induction of LTR-controlled expression of green-fluorescent protein (GFP); Effect on HIV-1 replication (p24), ACH-2 cells ([2]; 0.125-0.5 μM, 24 h and 72 h): increased HIV-1 replication in a time- and dose-dependent manner; Combined HIV-1 activating effect with BSO, ACH-2 cells ([2]; auranofin plus BSO, percentage-of-synergism surface, three days): synergistic HIV-1 activating effects; Combined HIV-1 activating effect with FeNTA, ACH-2 cells ([2]; percentage-of-synergism surface, three days): synergistic HIV-1 activating effects; Effect on HIV-1 replication (p24), U1 cells ([3]; 0.125-0.5 μM, 24 h and 72 h): increased HIV-1 replication in a time- and dose-dependent manner; Combined HIV-1 activating effect with MC2113, U1 cells ([3]; auranofin 0.25 μM plus MC2113 1 μM, 24 h): synergistic
N.N.[Cl][Pt][Cl] [cisplatin]	–	–	–	–	–	–	Concentration range activating quiescent HIV-1 (latent HIV-1; Spandidos et al., 1990): micromolar; Concentration range activating latent HIV-1 ([1]; cell line models for HIV-1 latency): nanomolar range
O=C([O-])CN(CC(=O)[O-])CC(=O)[O-].[Fe+3] [FeNTA, iron nitriloacetate]	–	–	–	–	–	–	Induction of HIV-1 replication by the agent alone, ACH-2 cells [2]: dose-dependently induced HIV-1 replication
arsenic trioxide	–	–	–	–	–	–	LTR-controlled GFP expression, Jurkat 8.4 cells [5]: dose-dependent shift in fluorescence; LTR-controlled GFP expression, Jurkat A1 cells ([1]; 72 h): increased in response to arsenic trioxide in a concentration-dependent manner
CCC(C(=O)Nc1ccc(/C=C/C(=O)NO)cc1)c1ccccc1 (stereo not shown) [MC 1864]	305	64	–	60.4	89	55	–
CC(C(=O)Nc1ccc(/C=C/C(=O)NO)cc1)c1ccccc1 (stereo not shown) [MC 1857]	291	80	–	–	72	79.3	–
CC(C)C(C(=O)Nc1ccc(C(=O)NO)cn1)c1ccccc1 (stereo not shown) [MC 2195]	69	8	Class 1	93.1	11	46.7	–
O=C(/C=C/c1ccc(NC(=O)C(Cc2ccccc2)c2ccccc2)cc1)NO (stereo not shown) [MC 1895, 3-[4-(2,3-Diphenylpropionylamino)phenyl]-N-hydroxy-2-propenamide]	83	74	Class 1	16.1	133	72.5	–
CCC(C(=O)Nc1ccc(/C=C/C(=O)NO)cc1)c1cccc2ccccc12 (stereo not shown) [MC 2111]	620	42	Class 1	0	58	73.6	–
